Several values for one entry are separate records, joined by “and”; a condition that tells them apart may be missing. Equal values may be shown once.
Molecular target: 15-PGDH/HPGD (Homo sapiens (Human), UniProt P15428)
Assay: hPGDH inhibitor screening biochemical assay
Settings: read-out: hPGDH: Average IC50
Procedure: A hydroxyprostaglandin dehydrogenase inhibition screening biochemical assay can be performed to assess the synthesized inhibitors provided herein. Provided herein is an exemplary biochemical assay for hPGDH inhibitor screening.
The in vitro biochemical assay can be performed in white, 384 plates in total 20 μl reaction volume consisting of 10 nM of 15-PGDH/HPGD (R&D System #5660-DH), 15 μM Prostaglandin E2 (Sigma, Cat #P5640-10MG) and 0.25 mM (3-Nicotinamide adenine dinucleotide sodium salt (Sigma, Cat #N0632-5G) made in reaction buffer (50 mM Tris-HCl, pH 7.5, 0.01% Tween 20) at 10-point dose response curve for test/tool compounds. Briefly, 5 μl (4×) of compounds solution and 5 μl (final concentration, 10 nM) of enzyme solution is added to white 384 well plates and incubated for 10 mins at 37° C. 5 μl (4×) of Prostaglandin E2 and 5 μl (4×) of β-Nicotinamide adenine dinucleotide sodium salt is added to the wells and incubated for 10 mins at room temperature. Fluorescence is recorded at ex/em=340 nm/485 nm. The percentage (%) inhibition of enzyme activity was determined relative to positive control (1% DMSO) and IC50 was calculated using GraphPad prism software (four parameter-variable slope equation).

Chain of 15-PGDH/HPGD (P15428 whole entry): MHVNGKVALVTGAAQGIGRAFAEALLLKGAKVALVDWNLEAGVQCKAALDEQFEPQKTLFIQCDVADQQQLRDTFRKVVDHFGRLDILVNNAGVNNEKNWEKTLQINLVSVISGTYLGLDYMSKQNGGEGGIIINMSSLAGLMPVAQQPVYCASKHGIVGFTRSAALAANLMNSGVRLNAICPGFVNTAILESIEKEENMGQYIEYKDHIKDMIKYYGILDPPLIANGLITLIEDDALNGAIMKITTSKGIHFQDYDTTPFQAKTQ

| SMILES | IC50 |
| --- | --- |
| CS(=O)(=O)n1ccc2cc(C(=O)N3CCCCC3)cnc21 [MF-DH-311, (1-(methylsulfonyl)-1H-pyrrolo[2,3-b]pyridin-5-yl)(piperidin-1-yl)methanone] | ≥ 1 µM |
| Cc1ccc(S(=O)(=O)n2ccc3cc(C(=O)N4CCCCC4)cnc32)cc1 [MF-DH-312, piperidin-1-yl(1-tosyl-1H-pyrrolo[2,3-b]pyridin-5-yl)methanone] | ≥ 1 µM |
| Nc1cc(-n2ccc3cc(C(=O)N4CCCCC4)cnc32)ccn1 [MF-DH-317] | < 0.1 µM |
| O=C(c1cnc2c(ccn2-c2ccn3ccnc3c2)c1)N1CCCCC1 [MF-DH-318] | < 0.1 µM |
| O=C(c1cnc2c(ccn2-c2ccc3[nH]ncc3c2)c1)N1CCCCC1 [MF-DH-319, (1-(1H-indazol-5-yl)-1H-pyrrolo[2,3-b]pyridin-5-yl)(piperidin-1-yl)methanone] | < 0.1 µM |
| Cc1cncc(-n2ccc3cc(C(=O)N4CCCCC4)cnc32)c1 [MF-DH-320] | < 0.1 µM |
| O=C(c1cnc2c(ccn2-c2ccc(O)nc2)c1)N1CCCCC1 [MF-DH-321] | < 0.1 µM |
| Nc1cncc(-n2ccc3cc(C(=O)N4CCCCC4)cnc32)c1 [MF-DH-322] | < 0.1 µM |
| COc1ccc(-n2ccc3cc(C(=O)N4CCCCC4)cnc32)cn1 [MF-DH-323] | < 0.1 µM |
| COc1ccc(-n2ccc3cc(C(=O)N4CCC(C(F)(F)F)CC4)cnc32)cc1 [MF-DH-324] | 0.1 to 1 µM |
| COc1ccc(-n2ccc3cc(C(=O)N4CCC(c5ccccc5)CC4)cnc32)cc1 [MF-DH-325] | ≥ 1 µM |
| COc1ccc(-n2ccc3cc(C(=O)N4CC(c5ccccc5)C4)cnc32)cc1 [MF-DH-326] | ≥ 1 µM |
| COc1ccc(-n2ccc3cc(C(=O)N4CCN(CC(F)(F)F)CC4)cnc32)cc1 [MF-DH-327] | ≥ 1 µM |
| COc1ccc(-n2ccc3cc(C(=O)N4[C@H](C)CCC[C@@H]4C)cnc32)cc1 [MF-DH-328, ((2R,6S)-2,6-dimethylpiperidin-1-yl)(1-(4-methoxyphenyl)-1H-pyrrolo[2,3-b]pyridin-5-yl)methanone] | 0.1 to 1 µM |
| COc1ccc(-n2ccc3cc(C(=O)N4C[C@H](C)C[C@H](C)C4)cnc32)cc1 [MF-DH-329, ((3R,5S)-3,5-dimethylpiperidin-1-yl)(1-(4-methoxyphenyl)-1H-pyrrolo[2,3-b]pyridin-5-yl)methanone] | < 0.1 µM |
| COc1ccc(-n2c(CCC(C)(C)O)cc3cc(C(=O)N4CCCCC4)cnc32)cc1 [MF-DH-330, (2-(3-hydroxy-3-methylbutyl)-1-(4-methoxyphenyl)-1H-pyrrolo[2,3-b]pyridin-5-yl)(piperidin-1-yl)methanone] | < 0.1 µM |
| Nc1ccc(-n2ccc3cc(C(=O)N4CCCCC4)cnc32)cn1 [MF-DH-336] | < 0.1 µM |
| COc1ccc(Cn2cc3cc(-n4ccc5cc(C(=O)N6CCCCC6)cnc54)ccc3n2)cc1 [MF-DH-340] | < 0.1 µM |
| NC(=O)c1ccc(-n2ccc3cc(C(=O)N4CCC(F)CC4)cnc32)cc1 [MF-DH-343] | < 0.1 µM |
| N#Cc1cccc(-n2ccc3cc(C(=O)N4CCC(F)CC4)cnc32)c1 [MF-DH-344] | < 0.1 µM |
| NC(=O)c1cccc(-n2ccc3cc(C(=O)N4CCC(F)CC4)cnc32)c1 [MF-DH-345] | < 0.1 µM |

| SMILES | IC50 |
| --- | --- |
| CN(C)c1ccc(-n2ccc3cc(C(=O)N4CCC(F)CC4)cnc32)cc1 [MF-DH-346] | < 0.1 µM |
| O=C(c1cnc2c(ccn2-c2ccc(CO)cc2)c1)N1CCC(F)CC1 [MF-DH-347] | < 0.1 µM |
| O=C(c1cnc2c(ccn2-c2cccc(CO)c2)c1)N1CCC(F)CC1 [MF-DH-348] | < 0.1 µM |
| NC(=O)c1cncc(-n2ccc3cc(C(=O)N4CCC(F)CC4)cnc32)c1 [MF-DH-351] | < 0.1 µM |
| NC(=O)c1ccc(-n2ccc3cc(C(=O)N4CCC(F)CC4)cnc32)cn1 [MF-DH-355] | < 0.1 µM |
| NC(=O)c1cncc(-n2ccc3cc(C(=O)N4CCCCC4)cnc32)c1 [MF-DH-361] | < 0.1 µM |
| CNC(=O)c1cncc(-n2ccc3cc(C(=O)N4CCCCC4)cnc32)c1 [MF-DH-362] | < 0.1 µM |
| CN(C)C(=O)c1cncc(-n2ccc3cc(C(=O)N4CCCCC4)cnc32)c1 [MF-DH-363] | < 0.1 µM |
| N#Cc1cncc(-n2ccc3cc(C(=O)N4CCCCC4)cnc32)c1 [MF-DH-364] | < 0.1 µM |
| CN(C)c1ccc(-n2ccc3cc(C(=O)N4CCCCC4)cnc32)cn1 [MF-DH-366] | < 0.1 µM |
| COCCNC(=O)c1ccc(-n2ccc3cc(C(=O)N4CCCCC4)cnc32)cc1 [MF-DH-367] | < 0.1 µM |
| CNC(=O)c1ccc(-n2ccc3cc(C(=O)N4CCCCC4)cnc32)cc1 [MF-DH-368] | < 0.1 µM |
| CN(C)C(=O)c1ccc(-n2ccc3cc(C(=O)N4CCCCC4)cnc32)cc1 [MF-DH-369] | < 0.1 µM |
| CC(C)(O)c1ccc(-n2ccc3cc(C(=O)N4CCCCC4)cnc32)cc1 [MF-DH-371] | < 0.1 µM |
| CC(C)(O)c1cccc(-n2ccc3cc(C(=O)N4CCCCC4)cnc32)c1 [MF-DH-375] | 0.1 to 1 µM |
| CC(N)c1cccc(-n2ccc3cc(C(=O)N4CCCCC4)cnc32)c1 (stereo not drawn) [MF-DH-376, (1-(3-(1-aminoethyl)phenyl)-1H-pyrrolo[2,3-b]pyridin-5-yl)(piperidin-1-yl)methanone] | 0.1 to 1 µM |
| NC(=O)c1ncc(-n2ccc3cc(C(=O)N4CCCCC4)cnc32)cn1 [MF-DH-384] | < 0.1 µM |
| COc1ccc(-n2ccc3c(NCc4ccccc4)c(C(=O)N4CCCCC4)cnc32)cc1 [MF-DH-385, (4-(benzylamino)-1-(4-methoxyphenyl)-1H-pyrrolo[2,3-b]pyridin-5-yl) (piperidin-1-yl) methanone] | 0.1 to 1 µM |
| N#Cc1ccc(-n2cc(Cl)c3cc(C(=O)N4CCC(F)CC4)cnc32)cc1 [MF-DH-388] | < 0.1 µM |
| N#Cc1ccc(-n2ccc3cc(C(=O)N4CCCCC4)cnc32)cn1 [MF-DH-389] | < 0.1 µM |
| Cc1cc(-n2ccc3cc(C(=O)N4CCCCC4)cnc32)cnc1N [MF-DH-392] | < 0.1 µM |

| SMILES | IC50 |
| --- | --- |
| Nc1ncc(-n2ccc3cc(C(=O)N4CCCCC4)cnc32)cc1Cl [MF-DH-393] | < 0.1 µM |
| NC(=O)c1ccc(-n2ccc3cc(C(=O)N4CCC(F)(F)CC4)cnc32)cc1 [MF-DH-394] | < 0.1 µM |
| N#Cc1ncc(-n2ccc3cc(C(=O)N4CCCCC4)cnc32)cn1 [MF-DH-397] | < 0.1 µM |
| Cc1nc(-c2cccc(-n3ccc4cc(C(=O)N5CCCCC5)cnc43)c2)no1 [MF-DH-402] | < 0.1 µM |
| N#Cc1ccc(-n2ccc3cc(C(=O)N4C[C@H](F)C[C@H](F)C4)cnc32)cc1 [MF-DH-417, 4-(5-((3R,5S)-3,5-difluoropiperidine-1-carbonyl)-1H-pyrrolo[2,3-b]pyridin-1-yl)benzonitrile] | 0.1 to 1 µM and < 0.1 µM |
| CCNC(=O)c1ccc(-n2ccc3cc(C(=O)N4CCC(F)(F)CC4)cnc32)cc1 [MF-DH-418] | < 0.1 µM |
| O=C(NC1CCNCC1)c1ccc(-n2ccc3cc(C(=O)N4CCC(F)(F)CC4)cnc32)cc1 [MF-DH-419] | < 0.1 µM |
| O=C(NC1CNC1)c1ccc(-n2ccc3cc(C(=O)N4CCC(F)(F)CC4)cnc32)cc1 [MF-DH-420] | < 0.1 µM |
| O=C(O)c1cncc(-n2ccc3cc(C(=O)N4CCC(F)(F)CC4)cnc32)c1 [MF-DH-425, 5-(5-(4,4-difluoropiperidine-1-carbonyl)-1H-pyrrolo[2,3-b]pyridin-1-yl)nicotinic acid] | < 0.1 µM |
| O=C(O)Cc1ccc(-n2ccc3cc(C(=O)N4CCC(F)(F)CC4)cnc32)cc1 [MF-DH-426, 2-(4-(5-(4,4-difluoropiperidine-1-carbonyl)-1H-pyrrolo[2,3-b]pyridin-1-yl)phenyl)acetic acid] | < 0.1 µM |
| O=C(c1cnc2c(ccn2-c2ccc(C3(C(=O)O)CC3)cc2)c1)N1CCC(F)(F)CC1 [MF-DH-427, 1-(4-(5-(4,4-difluoropiperidine-1-carbonyl)-1H-pyrrolo[2,3-b]pyridin-1-yl)phenyl)cyclopropane-1-carboxylic acid] | 0.1 to 1 µM |
| O=C(NC1(C(=O)O)CC1)c1ccc(-n2ccc3cc(C(=O)N4CCC(F)(F)CC4)cnc32)cn1 [MF-DH-430, 1-(5-(5-(4,4-difluoropiperidine-1-carbonyl)-1H-pyrrolo[2,3-b]pyridin-1-yl)picolinamido)cyclopropane-1-carboxylic acid] | < 0.1 µM |
| CC(C)(CC(=O)O)NC(=O)c1ccc(-n2ccc3cc(C(=O)N4CCC(F)(F)CC4)cnc32)cc1 [MF-DH-431] | < 0.1 µM |
| O=C(O)[C@@H]1CCCN1C(=O)c1ccc(-n2ccc3cc(C(=O)N4CCC(F)(F)CC4)cnc32)cc1 [MF-DH-432] | < 0.1 µM |
| O=C(O)c1ccc(-n2ccc3cc(C(=O)N4CCCCC4)cnc32)cc1 [MF-DH-433, 4-(5-(piperidine-1-carbonyl)-1H-pyrrolo[2,3-b]pyridin-1-yl)benzoic acid] | < 0.1 µM |
| N#Cc1ccc(-n2ccc3cc(C(=O)N4CCC(F)(F)CC4)cnc32)cc1 [MF-DH-439] | < 0.1 µM |
| N#Cc1ccc(-n2ccc3cc(C(=O)N4CCC(F)(F)CC4)cnc32)nc1 [MF-DH-440] | 0.1 to 1 µM |
| N#Cc1ccc(-n2ccc3cc(C(=O)N4CCC(F)(F)CC4)cnc32)cc1O [MF-DH-441] | < 0.1 µM |
| N#Cc1ccc(-n2cnc3cc(C(=O)N4CCC(F)(F)CC4)cnc32)cc1 [MF-DH-442] | < 0.1 µM |
| N#Cc1ccc(-n2cnc3cc(C(=O)N4CC(Cl)C4)cnc32)cc1 [MF-DH-443] | < 0.1 µM |
| CC(C)(O)CCc1cc2cc(C(=O)N3CCC(F)(F)CC3)cnc2n1-c1ccc(C#N)cc1 [MF-DH-444, 4-(5-(4,4-difluoropiperidine-1-carbonyl)-2-(3-hydroxy-3-methylbutyl)-1H-pyrrolo[2,3-b]pyridin-1-yl)benzonitrile] | < 0.1 µM |
